# Test results taken from PMC10952433, “A Chemoenzymatic Approach To Produce a Cyclic Analogue of the Analgesic Drug MVIIA (Ziconotide)” (Angewandte Chemie (International Ed. in English), 2023).
# Key:
# [1] = target: T1, CaV2.2 (Homo sapiens, UniProt Q00975)
# [2] = target: T1, CaV2.2; experiment: cell-based
# [3] = in vitro; conditions: simulated intestinal fluid, pH 6.8
# T1 sequence (Q00975 whole entry, looked up): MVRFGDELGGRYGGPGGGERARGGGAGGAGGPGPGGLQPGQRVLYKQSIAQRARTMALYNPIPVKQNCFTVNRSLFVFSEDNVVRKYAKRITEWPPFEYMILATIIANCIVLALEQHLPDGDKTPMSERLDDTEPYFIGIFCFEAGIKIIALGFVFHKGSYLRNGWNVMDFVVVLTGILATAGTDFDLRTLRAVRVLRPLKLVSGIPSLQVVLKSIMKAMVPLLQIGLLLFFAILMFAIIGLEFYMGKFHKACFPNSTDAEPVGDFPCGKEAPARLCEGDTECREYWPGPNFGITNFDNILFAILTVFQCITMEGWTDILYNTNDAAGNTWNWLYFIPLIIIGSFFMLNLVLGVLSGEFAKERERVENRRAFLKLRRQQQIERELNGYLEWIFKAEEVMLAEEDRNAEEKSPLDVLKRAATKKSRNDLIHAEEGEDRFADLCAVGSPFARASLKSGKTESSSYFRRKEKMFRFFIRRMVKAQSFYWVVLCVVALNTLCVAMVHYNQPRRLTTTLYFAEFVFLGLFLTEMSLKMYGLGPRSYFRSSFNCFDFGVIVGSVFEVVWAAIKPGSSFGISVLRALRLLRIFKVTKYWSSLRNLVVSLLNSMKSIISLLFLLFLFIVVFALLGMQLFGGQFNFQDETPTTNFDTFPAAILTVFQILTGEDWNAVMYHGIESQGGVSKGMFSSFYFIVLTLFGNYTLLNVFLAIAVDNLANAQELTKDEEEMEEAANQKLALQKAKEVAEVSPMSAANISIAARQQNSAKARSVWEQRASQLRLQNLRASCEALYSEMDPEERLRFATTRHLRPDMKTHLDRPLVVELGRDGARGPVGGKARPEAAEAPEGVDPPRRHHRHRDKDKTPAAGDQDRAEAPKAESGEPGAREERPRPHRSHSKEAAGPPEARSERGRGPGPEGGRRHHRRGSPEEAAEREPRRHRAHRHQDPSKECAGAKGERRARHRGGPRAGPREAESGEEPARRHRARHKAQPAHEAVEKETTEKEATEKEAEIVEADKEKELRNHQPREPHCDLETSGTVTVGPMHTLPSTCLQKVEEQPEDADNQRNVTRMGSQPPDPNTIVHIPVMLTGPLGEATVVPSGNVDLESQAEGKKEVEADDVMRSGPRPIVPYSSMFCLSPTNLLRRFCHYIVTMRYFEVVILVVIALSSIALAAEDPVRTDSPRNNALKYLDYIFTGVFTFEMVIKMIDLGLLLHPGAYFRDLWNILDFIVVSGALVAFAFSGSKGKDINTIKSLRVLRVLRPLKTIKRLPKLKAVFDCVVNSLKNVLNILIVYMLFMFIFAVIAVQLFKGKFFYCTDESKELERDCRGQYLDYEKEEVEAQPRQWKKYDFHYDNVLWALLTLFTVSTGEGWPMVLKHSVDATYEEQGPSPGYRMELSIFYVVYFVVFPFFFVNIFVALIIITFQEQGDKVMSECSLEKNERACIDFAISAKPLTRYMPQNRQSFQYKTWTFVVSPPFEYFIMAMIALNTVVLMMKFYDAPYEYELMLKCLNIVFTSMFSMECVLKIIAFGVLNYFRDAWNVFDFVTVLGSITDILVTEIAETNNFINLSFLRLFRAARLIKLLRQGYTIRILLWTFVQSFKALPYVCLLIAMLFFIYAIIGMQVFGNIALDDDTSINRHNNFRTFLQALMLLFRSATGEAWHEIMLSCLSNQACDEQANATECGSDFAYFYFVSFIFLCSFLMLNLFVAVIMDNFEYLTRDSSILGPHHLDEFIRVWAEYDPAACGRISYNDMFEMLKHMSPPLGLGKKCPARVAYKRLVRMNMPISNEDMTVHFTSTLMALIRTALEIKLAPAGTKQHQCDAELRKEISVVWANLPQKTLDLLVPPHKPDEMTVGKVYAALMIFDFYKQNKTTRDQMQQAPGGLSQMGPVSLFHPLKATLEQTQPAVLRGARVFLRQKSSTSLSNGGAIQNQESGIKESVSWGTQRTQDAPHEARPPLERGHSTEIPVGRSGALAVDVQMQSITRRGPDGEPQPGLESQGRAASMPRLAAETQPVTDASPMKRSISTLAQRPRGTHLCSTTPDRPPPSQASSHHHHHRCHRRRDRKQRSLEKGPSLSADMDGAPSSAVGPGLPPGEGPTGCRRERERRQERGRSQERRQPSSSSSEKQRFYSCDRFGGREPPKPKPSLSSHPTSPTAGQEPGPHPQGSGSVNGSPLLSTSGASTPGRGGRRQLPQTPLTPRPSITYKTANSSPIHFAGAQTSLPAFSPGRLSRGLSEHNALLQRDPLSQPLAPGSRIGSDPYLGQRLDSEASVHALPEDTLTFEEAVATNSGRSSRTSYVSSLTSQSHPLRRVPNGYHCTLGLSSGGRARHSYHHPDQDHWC
Structure (SMILES),LogEC50 [1],EC50 [2],IC50 [2],half-life [3],remaining at 1 h [3]
CCCC[C@@H]1NC(=O)[C@H](CC(C)C)NC(=O)[C@H](CCCNC(=N)N)NC(=O)[C@H](CO)NC(=O)[C@@H]2CSSC[C@@H]3NC(=O)[C@H](CO)NC(=O)CNC(=O)[C@H]([C@@H](C)O)NC(=O)[C@@H]4CSSC[C@H](NC(=O)[C@H](C)NC(=O)[C@H](C)NC(=O)CNC(=O)CNC(=O)[C@H](CC(N)=O)NC(=O)CNC(=O)CNC(=O)[C@H](C)NC(=O)[C@H](CSSC[C@H](NC(=O)[C@H](CC(=O)O)NC(=O)[C@H](Cc5ccc(O)cc5)NC1=O)C(=O)N4)NC(=O)[C@H](CCCCN)NC(=O)CNC(=O)[C@H](CO)NC(=O)[C@H](CCCNC(=N)N)NC3=O)C(=O)N[C@@H](CCCCN)C(=O)NCC(=O)N[C@@H](CCCCN)C(=O)NCC(=O)N[C@@H](C)C(=O)N[C@@H](CCCCN)C(=O)N2 [cM-8],-7.6,21.8 nM,21.8 ± 1.2 nM,,
CCCC[C@@H]1NC(=O)[C@H](CC(C)C)NC(=O)[C@H](CCCNC(=N)N)NC(=O)[C@H](CO)NC(=O)[C@@H]2CSSC[C@@H]3NC(=O)[C@H](CO)NC(=O)CNC(=O)[C@H]([C@@H](C)O)NC(=O)[C@@H]4CSSC[C@H](NC(=O)[C@H](C)NC(=O)[C@H](C)NC(=O)CNC(=O)CNC(=O)[C@H](CC(N)=O)NC(=O)CNC(=O)[C@H](C)NC(=O)[C@H](CSSC[C@H](NC(=O)[C@H](CC(=O)O)NC(=O)[C@H](Cc5ccc(O)cc5)NC1=O)C(=O)N4)NC(=O)[C@H](CCCCN)NC(=O)CNC(=O)[C@H](CO)NC(=O)[C@H](CCCNC(=N)N)NC3=O)C(=O)N[C@@H](CCCCN)C(=O)NCC(=O)N[C@@H](CCCCN)C(=O)NCC(=O)N[C@@H](C)C(=O)N[C@@H](CCCCN)C(=O)N2 [cM-7],-7.8,13.5 nM,13.5 ± 1.2 nM,43 min,~38%
CCCC[C@@H]1NC(=O)[C@H](CC(C)C)NC(=O)[C@H](CCCNC(=N)N)NC(=O)[C@H](CO)NC(=O)[C@@H]2CSSC[C@@H]3NC(=O)[C@H](CO)NC(=O)CNC(=O)[C@H]([C@@H](C)O)NC(=O)[C@@H]4CSSC[C@H](NC(=O)[C@H](C)NC(=O)CNC(=O)CNC(=O)[C@H](CC(N)=O)NC(=O)CNC(=O)[C@H](C)NC(=O)[C@H](CSSC[C@H](NC(=O)[C@H](CC(=O)O)NC(=O)[C@H](Cc5ccc(O)cc5)NC1=O)C(=O)N4)NC(=O)[C@H](CCCCN)NC(=O)CNC(=O)[C@H](CO)NC(=O)[C@H](CCCNC(=N)N)NC3=O)C(=O)N[C@@H](CCCCN)C(=O)NCC(=O)N[C@@H](CCCCN)C(=O)NCC(=O)N[C@@H](C)C(=O)N[C@@H](CCCCN)C(=O)N2 [cM-6],-7.4,43.2 nM,43.2 ± 1.4 nM,,
CSCC[C@@H]1NC(=O)[C@H](CC(C)C)NC(=O)[C@H](CCCNC(=N)N)NC(=O)[C@H](CO)NC(=O)[C@@H]2CSSC[C@@H]3NC(=O)[C@H](CO)NC(=O)CNC(=O)[C@H]([C@@H](C)O)NC(=O)[C@H](CSSC[C@H](N)C(=O)N[C@@H](CCCCN)C(=O)NCC(=O)N[C@@H](CCCCN)C(=O)NCC(=O)N[C@@H](C)C(=O)N[C@@H](CCCCN)C(=O)N2)NC(=O)[C@H](CSSC[C@@H](C(=O)O)NC(=O)[C@H](CCCCN)NC(=O)CNC(=O)[C@H](CO)NC(=O)[C@H](CCCNC(=N)N)NC3=O)NC(=O)[C@H](CC(=O)O)NC(=O)[C@H](Cc2ccc(O)cc2)NC1=O [M-3],-8.8,1.7 nM,1.7 ± 1.2 nM,,
CCCC[C@@H]1NC(=O)[C@H](CC(C)C)NC(=O)[C@H](CCCNC(=N)N)NC(=O)[C@H](CO)NC(=O)[C@@H]2CSSC[C@@H]3NC(=O)[C@H](CO)NC(=O)CNC(=O)[C@H]([C@@H](C)O)NC(=O)[C@@H]4CSSC[C@H](NC(=O)[C@H](C)NC(=O)[C@H](C)NC(=O)CNC(=O)CNC(=O)[C@H](CC(N)=O)NC(=O)CNC(=O)CNC(=O)[C@H](C)NC(=O)[C@H](C)NC(=O)[C@H](CSSC[C@H](NC(=O)[C@H](CC(=O)O)NC(=O)[C@H](Cc5ccc(O)cc5)NC1=O)C(=O)N4)NC(=O)[C@H](CCCCN)NC(=O)CNC(=O)[C@H](CO)NC(=O)[C@H](CCCNC(=N)N)NC3=O)C(=O)N[C@@H](CCCCN)C(=O)NCC(=O)N[C@@H](CCCCN)C(=O)NCC(=O)N[C@@H](C)C(=O)N[C@@H](CCCCN)C(=O)N2 [cM-9],-6.4,307 nM,306.6 ± 1.5 nM,,
CCCC[C@@H]1NC(=O)[C@H](CC(C)C)NC(=O)[C@H](CCCNC(=N)N)NC(=O)[C@H](CO)NC(=O)[C@@H]2CSSC[C@@H]3NC(=O)[C@H](CO)NC(=O)CNC(=O)[C@H]([C@@H](C)O)NC(=O)[C@H](CSSC[C@H](N)C(=O)N[C@@H](CCCCN)C(=O)NCC(=O)N[C@@H](CCCCN)C(=O)NCC(=O)N[C@@H](C)C(=O)N[C@@H](CCCCN)C(=O)N2)NC(=O)[C@H](CSSC[C@@H](C(N)=O)NC(=O)[C@H](CCCCN)NC(=O)CNC(=O)[C@H](CO)NC(=O)[C@H](CCCNC(=N)N)NC3=O)NC(=O)[C@H](CC(=O)O)NC(=O)[C@H](Cc2ccc(O)cc2)NC1=O [M-2],-9.9,0.1 nM,0.1 nM,,
